Source: patent US8871948B2, “(Aza)indole derivative substituted in position 5, pharmaceutical composition comprising it, intermediate compounds and preparation process therefor” (Aziende Chimiche Riunite Angelini Francesco A.C.R.A.F.S.p.A., priority 2007, dated 2014)

Columns and labels:
[1] = tested on: production of PGE2 in human pulmonary adenocarcinoma cell line A549 (mPGES-1); assay: Inhibition of PGE2 production in IL-1β-stimulated A549 cells (EIA); assay type: cell-based; conditions: for IC50: IL-1β stimulated, read-out: pIC50 PGE2 (converted)
Excerpt: (§1) The test used makes it possible to evaluate the inhibitory capacity of the test compounds on the production of PGE2 and the selectivity relative to the production of PGF2α. The human pulmonary adenocarcinoma cell line A549 was used, which is particularly sensitive to stimulation with proinflammatory cytokines, for instance IL-1β, and, in response to this stimulation, is particularly active in the production and release of two prostanoids: PGE2 and PGF2α (Thoren S. Jakobsson P-J, 2000).
(§2) The cells were stimulated with IL-1β (10 ng/ml) and simultaneously treated with the test compound for 22 hours in a suitable culture medium (DMEM Dulbecco's Modified Eagles Medium) enriched with 5% fetal calf serum and L-glutamine (4 mM final) in an incubator at 37° C. and with a CO2 concentration of 5%.
(§3) At the end of the incubation, the amount of PGE2 and PGF2α produced and released into the supernatant were assayed using an EIA kit (produced and sold by Cayman Chemicals, Ann Arbor, Mich., USA).
(§4) The comparative compound used was indomethacin at a concentration of 10 nM (Sigma-Aldrich), which is a non-steroidal anti-inflammatory drug that inhibits in equal measure both PGE2 and PGF2α.
(§5) For illustrative purposes, Table 3 collates the pIC50 values of a number of compounds of the invention, where pIC50 represents the negative logarithm of the IC50, which, in turn, represents the concentration of compound that inhibits the production of PGE2 or PGF2α by 50% relative to cells that are stimulated but not treated with the same compound.

[2] = tested on: production of PGF2α in human pulmonary adenocarcinoma cell line A549; assay: Inhibition of PGF2α production in IL-1β-stimulated A549 cells (EIA); assay type: cell-based; conditions: for IC50: IL-1β stimulated, read-out: pIC50 PGF2α (converted)
Excerpt: as §1, §2, §3, §4, §5

[3] = tested on: acetic acid-induced stretching in mice; assay: Acetic acid-induced stretching in mice; assay type: in vivo; conditions: female CD-1 mice; for N° of stretches: 20 minutes after acetic acid; for % inhibition (stretches): vs vehicle (MTC)
Method: The test compound was evaluated in the model of acetic acid-induced stretching in mice (Stock J. L. et al., J Clin Inv 2001, 107: 325-331). This test makes it possible to evaluate the antinociceptive activity of the compounds of the invention in a model of inflammatory pain.
Female CD-1 mice weighing 25-30 g were used for the test. […] The control animals were treated with the vehicle alone (MTC) via the same route.
30 minutes after the treatment, the animals received an intraperitoneal injection of acetic acid (0.7 v/v in physiological solution, 16 μl/g of body weight) in order to induce inflammatory pain and to check the effects of the test compound on the nociceptive response.
Immediately after the administration of acetic acid and for the following 20 minutes, the number of stretches, which represents the parameter for evaluation of the nociceptive response, was measured.

[4] = tested on: production of PGE2 in human lymphoma cell line U-937 (cPGES); assay: Inhibition of PGE2 production in U-937 cells (selectivity between isoforms of PGES); assay type: cell-based; conditions: basal conditions
Excerpt: The test used makes it possible to evaluate the capacity of the compounds of the invention to inhibit the production of PGE2 in a human lymphoma cell line U-937 that preferentially expresses an enzymatic isoform (cPGES), which is responsible for the production of PGE2 under basal conditions, in the absence of pro-inflammatory stimuli. This enzymatic form is different from the one predominantly expressed in the A549 cells (mPGES-1) after a pro-inflammatory stimulus.
The absence of inhibitory activity on PGE2 in this cell model ensures the selectivity of the compound compared with the enzymatic form responsible for the production of PGE2 in the presence of inflammatory stimuli.
The reference compound used was indomethacin at a concentration of 10 nM.

[5] = 10 nM, IL-1β 10 ng/ml, 22 hours

| IC50 [1] | SMILES | inhibition at 10 µM ([1]; IL-1β 10 ng/ml, 22 hours) | inhibition at 10 µM ([2]; IL-1β 10 ng/ml, 22 hours) | also measured |
| --- | --- | --- | --- | --- |
| – | CCn1c(-c2ccc(C)cc2)cc2cc(NC(=O)c3ccccc3Cl)cnc21 [Compound 1] | 59% | < 20% | – |
| 3.98 µM | CCOC(=O)CCCn1c(-c2ccccc2)cc2cc(NC(=O)c3ccccc3Cl)ccc21 [Compound 7] | 76% | < 20% | – |
| 1.58 µM | CCn1c(C2CCCCC2)cc2cc(NC(=O)c3ccccc3Cl)ccc21 [Compound 10] | 78% | < 20% | N° of stretches ([3]; 0.01 mg/kg intraperitoneally): 47 ± 4.3; % inhibition (stretches) ([3]; 0.01 mg/kg intraperitoneally): 5.9 ± 8.76%; N° of stretches ([3]; 0.1 mg/kg intraperitoneally): 34 ± 3.2; % inhibition (stretches) ([3]; 0.1 mg/kg intraperitoneally): 33.2 ± 6.16%; N° of stretches ([3]; 1 mg/kg intraperitoneally): 33 ± 3.9; % inhibition (stretches) ([3]; 1 mg/kg intraperitoneally): 33.6 ± 8.04%; N° of stretches ([3]; 10 mg/kg intraperitoneally): 21 ± 3.2; % inhibition (stretches) ([3]; 10 mg/kg intraperitoneally): 57.5 ± 6.57%; inhibition at 10 µM [4]: < 20% |
| 3.16 µM | COCCn1c(-c2ccccc2)cc2cc(NC(=O)c3ccccc3Cl)ccc21 [Compound 12] | 78% | < 20% | inhibition at 10 µM [4]: < 20% |
| 7.94 µM | CC(=O)OCCCn1c(-c2ccccc2)cc2cc(NC(=O)c3ccccc3Cl)ccc21 [Compound 13] | 61% | < 20% | inhibition at 10 µM [4]: < 20% |
| 0.501 µM | CS(=O)(=O)n1c(CCc2ccccc2)cc2cc(NC(=O)c3ccccc3Cl)ccc21 [Compound 21] | 69% | < 20% | – |
| 1.58 µM | CS(=O)(=O)n1c(-c2cccc(C(F)(F)F)c2)cc2cc(NC(=O)c3ccccc3Cl)ccc21 [Compound 22] | 94% | 44% | IC50 [2]: 25.1 µM; inhibition at 10 µM [4]: < 20% |
| – | CCn1c(CCc2ccccc2)cc2cc(NC(=O)c3ccccc3Cl)ccc21 [Compound 33] | 41% | < 20% | – |
| 2.51 µM | CCn1c(Cc2ccccc2)cc2cc(NC(=O)c3ccccc3Cl)ccc21 [Compound 34] | 83% | 44% | – |
| 2.51 µM | O=C(Nc1ccc2c(c1)cc(C(=O)Nc1ccccc1)n2CCCO)c1ccccc1C(F)(F)F [Compound 35] | 88% | 13% | IC50 [2]: 31.6 µM |
| 50.1 µM | O=C(Nc1ccc2c(c1)cc(-c1ccc(F)cc1)n2CCO)c1c(Cl)cccc1Cl [Compound 36] | 40% | < 20% | – |
| 6.31 µM | O=C(Nc1ccc2c(c1)cc(-c1ccc(Cl)cc1)n2CCO)c1ccc(F)cc1C(F)(F)F [Compound 37] | 73% | < 20% | – |
| 25.1 µM | O=C(Nc1ccc2c(c1)cc(-c1ccc(F)cc1)n2CCO)c1c(F)cccc1C(F)(F)F [Compound 38] | 42% | < 20% | – |
| 0.00501 µM | COc1ccc2c(c1)c(CC(=O)O)c(C)n2C(=O)c1ccc(Cl)cc1 [Indomethacin, indomethacin, reference compound] | – | – | inhibition at 0.01 µM [1, 5]: 100%; inhibition at 0.01 µM [2, 5]: 100%; IC50 [2]: 0.00251 µM; inhibition at 0.01 µM ([4]; 10 nM): 100% |
